In patent publication US7060273B2, “Methods for inhibiting HIV-1 infection” (priority 2001, dated 2006):

Key:
[1] = test system: fusion between HeLa-EnvJR-FL and PM1 cells
Description: HIV-1 envelope-mediated fusion between HeLa-EnvJR-FL and PM1 cells was detected using a Resonance Energy Transfer (RET) assay.
HIV-1 inhibition data were analyzed according to the Combination Index method of Chou and Talay. The data are modeled according to the median-effect principle, which can be written f=1/[1+(K/c)^m] (1) where f is the fraction affected/inhibited, c is concentration, K is the concentration of agent required to produce the median effect, and m is an empirical coefficient describing the shape of the dose-response curve. Equation (1) is a generalized form of the equations describing Michaelis-Menton enzyme kinetics, Langmuir adsorption isotherms, and Henderson-Hasselbalch ionization equilibria, for which m=1 in all cases. In the present case, K is equal to the IC50 value. K and m are determined by curve-fitting the dose-response curves.
After the best-fit parameters for K and m are obtained for the experimental agents and their combination, Equation (1) is rearranged to allow for calculation of c for a given f.
All concentrations are those required to achieve a given degree of inhibition. Equation (2) is used when the molecules are mutually nonexclusive, i.e., have different sites of action. Since this is the likely scenario for inhibitors of HIV-1 attachment and gp41 fusion intermediates, Equation (2) was used for all Combination Index calculations. […] CI<1 indicates synergy, CI=1 indicates purely additive effects, and CI>1 indicates antagonism. In general, CI values are most relevant at the higher levels of inhibition that are required to achieve a measurable clinical benefit.

HIV = conditions: human, in vivo; cited from earlier work

For enfuvirtide, the “concentration of the agent contained in the combination giving 95% inhibition” value ([1]; 25:1 CD4-IgG2:T-20 mass ratio) was 0.044 µg/mL, the “dose reduction by the combination” value ([1]; 95% inhibition, 25:1 mass ratio) was 5 fold and the “K (equal to IC50), best-fit median effect parameter” value ([1]; FIG. 8, combination 25:1 CD4-IgG2:T-20) was 0.017 µg/mL. The “concentration required for inhibition of viral entry by 95%” value ([1]; agent used alone, or total of 25:1 mass ratio combination) was 0.21 µg/mL and the “reduction of plasma HIV RNA levels” value (HIV) was ≤ 2 logs.
